Molecular target: MHC-II allele DRB1*01:01 (Homo sapiens, UniProt P01903+P01911, A100R/D57E/F55L/F60I/F76Y/I96L/L162R/M171V/P40L/Q125E/R42F/V115G/Y59C)
Assay type: binding
Details: not given

Sequence	Affinity for MHC-II (subfamily by experimental affinity scores)
QTLIAIHTLAIRYAN [Peptide P10]	high affinity

Same assay, conditions: DRB1*01:01; SF-high / SF-low assigned from REVEAL scores

Sequence	Affinity for MHC-II (subfamily by experimental affinity scores)
QGLKAIHTLAIRYAN [Peptide V10]	high affinity
QGLPAIHTLAIRYAN [Peptide V7]	low affinity
QMLHAIHTLAIRYAN [Peptide V16]	high affinity
QNHHAIHTLAIRYAN [Peptide V15]	low affinity
QPFPDIHTLAIRYAN [Peptide V3]	low affinity
QPFQDIHTLAIRYAN [Peptide V5]	low affinity
QTLLDIHTLAIRYAN [Peptide V1]	low affinity
QTLQAIHTLAIRLAN [Peptide V11]	high affinity
QTLTAIHTLAIRYAN [Peptide V6]	high affinity
QTYHAIHTLAIRYAN [Peptide V14]	high affinity
